Test results published in PubChem BioAssay (NCI).
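Method: 48-hour compound exposure of cells in 96-well plates, five concentrations, linear interpolation of endpoints. GI50 is the concentration that inhibits growth by half. The concentration for full growth arrest is given as TGI.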

Tests used:
Test in all cases: NCI-60 cell line screen, 48 h
ACHN renal = system: ACHN renal
COLO 205 colon = system: COLO 205 colon
EKVX NSCLC = system: EKVX NSCLC
HCT-116 colon = system: HCT-116 colon
HCT-15 colon = system: HCT-15 colon
NCI-H522 lung = system: NCI-H522 lung
SF-268 CNS = system: SF-268 CNS
SK-OV-3 ovarian = system: SK-OV-3 ovarian
SNB-19 CNS = system: SNB-19 CNS
HS 578T breast = system: HS 578T breast

| Structure (SMILES) | TGI (ACHN renal) | TGI (COLO 205 colon) | TGI (EKVX NSCLC) | TGI (HCT-116 colon) | TGI (HCT-15 colon) | TGI (NCI-H522 lung) | TGI (SF-268 CNS) | TGI (SK-OV-3 ovarian) | TGI (SNB-19 CNS) | GI50 (ACHN renal) | GI50 (COLO 205 colon) | GI50 (HCT-116 colon) | GI50 (HCT-15 colon) | GI50 (HS 578T breast) | TGI (HS 578T breast) | GI50 (NCI-H522 lung) | GI50 (SF-268 CNS) | GI50 (SK-OV-3 ovarian) | GI50 (SNB-19 CNS) | GI50 (EKVX NSCLC) |
| --- | --- | --- | --- | --- | --- | --- | --- | --- | --- | --- | --- | --- | --- | --- | --- | --- | --- | --- | --- | --- |
| CCOC(=O)N1C/C(=C\c2ccc(N(C)C)cc2)C(=O)/C(=C/c2ccc(N(C)C)cc2)C1 | > 100 µM | > 100 µM | > 100 µM | > 100 µM | > 100 µM | > 100 µM | > 100 µM | > 100 µM | > 100 µM |  |  |  |  |  |  |  |  |  |  |  |
| Nc1ncnc2c1ncn2C1(CO)OC(CO)C(O)C1O (stereo not drawn) | > 100 µM | > 100 µM |  | > 100 µM | > 100 µM | > 100 µM | > 100 µM | > 100 µM | > 100 µM |  |  |  |  |  |  |  |  |  |  |  |
| CC[P+](C)(C)CC | > 100 µM | > 100 µM | > 100 µM | > 100 µM | > 100 µM |  | > 100 µM | > 100 µM | > 100 µM |  |  |  |  |  |  |  |  |  |  |  |
| Cc1ccc(C)c(NC(=O)C(=O)C(C2C(C)CC(=O)C2CC(=O)O)[N+](=O)[O-])c1 (stereo not drawn) | > 100 µM | > 100 µM | > 100 µM | > 100 µM | > 100 µM |  | > 100 µM | > 100 µM | > 100 µM |  |  |  |  |  |  |  |  |  |  |  |
| CCCCCCCCCCCCNCCCc1ccccc1 | 3.5 µM | 3.43 µM |  | 3.17 µM | 3.33 µM | 3.03 µM | 3.85 µM | 5.37 µM | 5.35 µM | 1.8 µM | 1.87 µM | 1780 nM | 1.71 µM | 1660 nM | 3.72 µM | 1.62 µM | 1.87 µM | 2370 nM | 2.07 µM |  |
| O=S(=O)([O-])c1ccc(C=Nc2ccccc2)c([O-])c1.O=S(=O)([O-])c1ccc(C=Nc2ccccc2)c([O-])c1.[Co+2] | > 100 µM | > 100 µM | > 100 µM |  | > 100 µM | > 100 µM | > 100 µM | > 100 µM | > 100 µM | 48.1 µM | 70.5 µM |  | 45.5 µM |  |  | > 100 µM | 5.18 µM | > 100000 nM | > 100 µM | 43.2 µM |
| CCCOC(=O)C1C(c2ccc(OC)cc2)NC(c2ccc(OC)cc2)C(C(=O)OCCC)S1(=O)=O (stereo not drawn) | > 100 µM | > 100 µM | > 100 µM | > 100 µM | > 100 µM | > 100 µM | > 100 µM | > 100 µM | > 100 µM | > 100 µM | > 100 µM | > 100000 nM | > 100 µM |  |  | > 100 µM | > 100 µM |  | > 100 µM | > 100 µM |
| O=C1OC(=O)c2c1cc1cc3c(cc1c2-c1ccc2c(c1)OCO2)OCO3 | > 100 µM | > 100 µM |  | > 100 µM | > 100 µM | > 100 µM | > 100 µM |  | > 100 µM |  |  |  |  |  |  |  |  |  |  |  |
| COc1ccc(C)cc1-c1ccc(-c2cc(C)ccc2OC)o1 | > 100 µM | > 100 µM | > 100 µM | > 100 µM | > 100 µM | > 100 µM | > 100 µM | > 100 µM | > 100 µM |  |  |  |  |  |  |  |  |  |  |  |
| COc1ccc(C2=NC(CO)[C@H](c3ccccc3)O2)cc1OC (stereo partly drawn) | > 100 µM | > 100 µM |  | > 100 µM | > 100 µM | > 100 µM | > 100 µM | > 100 µM | > 100 µM |  |  |  |  |  |  |  |  |  |  |  |
